Where “and” joins values, the source holds several entries; their conditions need not be identical. Equal entries are not always repeated. Where two headings read alike, the source gives them in different places.
Legend:
[1] = format: in vivo, human
[2] = Hepatic impairment study, single-dose gilteritinib pharmacokinetics; format: in vivo, human; conditions: for AUC480, GLSM, Unbound / AUCinf, GLSM, Unbound / Cmax, GLSM, Unbound: single 10 mg dose, fasted, N = 8
[3] = CYP3A4 drug-drug interaction study in healthy subjects; format: in vivo, human; conditions: for AUCinf, GLSM ratio / AUClast, GLSM ratio / Cmax, GLSM ratio: 100 indicates no change
[4] = Effect of food study in healthy subjects; format: in vivo, human; conditions: single 40 mg dose
Population PK analysis = format: in vivo, human
[5] = format: in vivo, human; conditions: R/R AML; achievable at QD doses of 80 mg or greater
[6] = cited from earlier work
FLT3 [7] = conditions: doses of ≥ 80 mg/day; cited from earlier work
FLT3 [8] = conditions: cited from earlier work
c-Kit = conditions: preclinical evaluations; cited from earlier work
[9] = test system: FLT3 receptors expressing the F691L gatekeeper mutation; conditions: cited from earlier work
MV4-11 AML cells = conditions: mice xenografted with MV4-11 AML cells; cited from earlier work
[10] = for AUC / Cmax / Tmax / half-life: human, plasma, oral; for AUC / Cmax / Tmax: single dose (Day-2)
[11] = metabolite profiling after 14C-gilteritinib
[12] = single oral dose of 14C-gilteritinib
[13] = fluconazole + gilteritinib/gilteritinib alone
[14] = itraconazole + gilteritinib/gilteritinib alone
[15] = rifampicin + gilteritinib/gilteritinib alone
[16] = multiple dosing QD (Day 15), 20 mg, n = 3
[17] = multiple dosing QD (Day 15), 40 mg, n = 2
[18] = multiple dosing QD (Day 15), 40 mg, n = 12
[19] = multiple dosing QD (Day 15), 80 mg, n = 3
[20] = multiple dosing QD (Day 15), 80 mg, n = 20
[21] = multiple dosing QD (Day 15), 120 mg, n = 3
[22] = multiple dosing QD (Day 15), 120 mg, n = 61
[23] = multiple dosing QD (Day 15), 200 mg, n = 2
[24] = multiple dosing QD (Day 15), 200 mg, n = 79
[25] = multiple dosing QD (Day 15), 300 mg, n = 3
[26] = multiple dosing QD (Day 15), 300 mg, n = 15

CCc1nc(C(N)=O)c(Nc2ccc(N3CCC(N4CCN(C)CC4)CC3)c(OC)c2)nc1NC1CCOCC1 [gilteritinib, Gilteritinib]
average total blood-to-plasma ratios of total 14C-radioactivity ([1]; after [14C]-gilteritinib 120 mg single dose at steady state): 0.8514–1.361 | radioactive peak in feces, accounting for [1, 11]: 11.7–23.8% | radioactive peak in urine, accounting for [1, 11]: 6.3–15.8% | total administered dose recovered in feces [1, 12]: 64.5% | total dose recovered in urine [1, 12]: 16.4% | total radioactive dose recovered [1, 12]: 80.9% | AUC480, GMR vs normal hepatic function, Total ([2]; mild hepatic impairment): 78.13% | AUC480, GMR vs normal hepatic function, Unbound ([2]; mild hepatic impairment): 87.59% | AUCinf, GMR vs normal hepatic function, Total ([2]; mild hepatic impairment): 78.88% | AUCinf, GMR vs normal hepatic function, Unbound ([2]; mild hepatic impairment): 88.42% | Cmax, GMR vs normal hepatic function, Total ([2]; mild hepatic impairment): 106.59% | Cmax, GMR vs normal hepatic function, Unbound ([2]; mild hepatic impairment): 119.49% | AUC480, GMR vs normal hepatic function, Total ([2]; moderate hepatic impairment): 60.55% | AUC480, GMR vs normal hepatic function, Unbound ([2]; moderate hepatic impairment): 87.21% | AUCinf, GMR vs normal hepatic function, Total ([2]; moderate hepatic impairment): 61.43% | AUCinf, GMR vs normal hepatic function, Unbound ([2]; moderate hepatic impairment): 88.48% | Cmax, GMR vs normal hepatic function, Total ([2]; moderate hepatic impairment): 81.73% | Cmax, GMR vs normal hepatic function, Unbound ([2]; moderate hepatic impairment): 117.72% | AUC480, GLSM, Unbound ([2]; mild hepatic impairment): 0.02595 µg·h/mL | AUCinf, GLSM, Unbound ([2]; mild hepatic impairment): 0.02753 µg·h/mL | Cmax, GLSM, Unbound ([2]; mild hepatic impairment): 0.0005171 µg/mL | AUC480, GLSM, Unbound ([2]; moderate hepatic impairment): 0.02584 µg·h/mL | AUCinf, GLSM, Unbound ([2]; moderate hepatic impairment): 0.02754 µg·h/mL | Cmax, GLSM, Unbound ([2]; moderate hepatic impairment): 0.0005095 µg/mL | AUC480, GLSM, Unbound ([2]; normal hepatic function): 0.02962 µg·h/mL | AUCinf, GLSM, Unbound ([2]; normal hepatic function): 0.03113 µg·h/mL | Cmax, GLSM, Unbound ([2]; normal hepatic function): 0.0004328 µg/mL | increase in systemic exposure of gilteritinib ([3]; coadministration of itraconazole (strong CYP3A4 inhibitor)): ~ 2.2 fold and 2.2 fold | increase in gilteritinib systemic exposure ([3]; coadministration with fluconazole): ~ 1.43 fold | decrease in gilteritinib systemic exposure ([3]; concomitant administration of rifampicin): ~ 70% | AUCinf, GLSM ratio [3, 13]: 143.5% | AUClast, GLSM ratio [3, 13]: 144.0% | Cmax, GLSM ratio [3, 13]: 115.7% | AUCinf, GLSM ratio [3, 14]: 221.4% | AUClast, GLSM ratio [3, 14]: 213.5% | Cmax, GLSM ratio [3, 14]: 119.8% | AUCinf, GLSM ratio [3, 15]: 28.5% | AUClast, GLSM ratio [3, 15]: 29.2% | Cmax, GLSM ratio [3, 15]: 73.4% | AUC72, GMR (fed/fasted) [4]: 91.0% | AUCinf, GMR (fed/fasted) [4]: 93.8% | AUClast, GMR (fed/fasted) [4]: 94.6% | Cmax, GMR (fed/fasted) [4]: 74.0% | half-life (Population PK analysis; human, plasma, oral): 113 h | volume of distribution (Population PK analysis; in vivo): large volume of distribution | steady-state Ctrough at which composite complete response occurred more commonly [5]: ≥ 100 ng/mL | maximum tolerated dose ([6]; R/R AML, QD single agent): 300 mg/day | median overall survival duration ([6]; doses of ≥ 80 mg/day): 31 weeks | overall response rate ([6]; doses of ≥ 80 mg/day): 52% | maximum FLT3 inhibition (FLT3 [7]): > 90% | inhibition of FLT3 receptors with ITD and D835 mutations (FLT3 [8]): highly specific potent inhibition | selectivity for FLT3 (FLT3 [8]; preclinical evaluations): highly selective for FLT3 | activity against c-Kit (c-Kit): weak activity | activity against FLT3 receptors expressing the F691L gatekeeper mutation [9]: weak activity | effect on tumor growth (MV4-11 AML cells): inhibited tumor growth and induced tumor regression | dose proportionality of pharmacokinetics ([10]; 20 to 450 mg QD, R/R AML): dose-proportional pharmacokinetics | time at which steady state is achieved, based on Ctrough ([10]; QD dosing, visual inspection of median Ctrough): ≤ 15 days | AUC ([10]; 20 mg, AUC24, Mean (SD), n = 5): 0.302 µg·h/mL | AUC ([10]; 20 mg, AUC24, Median (range), n = 5): 0.262 µg·h/mL | Cmax ([10]; 20 mg, Mean (SD), n = 5): 0.0281 µg/mL | Cmax ([10]; 20 mg, Median (range), n = 5): 0.0237 µg/mL | Tmax ([10]; 20 mg, Median (range), n = 5): 2 h | half-life ([10]; 20 mg, t½, Mean (SD), multiple dosing QD (Day 15), 20 mg, n = 3, calculated from Rac): 62.1 h | half-life ([10]; 20 mg, t½, Median (range), multiple dosing QD (Day 15), 20 mg, n = 3, calculated from Rac): 54.5 h | AUC ([10]; 40 mg, AUC24, Mean (SD), n = 3): 0.36 µg·h/mL | AUC ([10]; 40 mg, AUC24, Median (range), n = 3): 0.315 µg·h/mL | Cmax ([10]; 40 mg, Mean (SD), n = 3): 0.025 µg/mL | Cmax ([10]; 40 mg, Median (range), n = 3): 0.017 µg/mL | Tmax ([10]; 40 mg, Median (range), n = 3): 5.98 h | half-life ([10]; 40 mg, t½, Mean (SD), multiple dosing QD (Day 15), 40 mg, n = 2, calculated from Rac): 152 h | half-life ([10]; 40 mg, t½, Median (range), multiple dosing QD (Day 15), 40 mg, n = 2, calculated from Rac): 152 h | AUC ([10]; 80 mg, AUC24, Mean (SD), n = 3): 1.22 µg·h/mL | AUC ([10]; 80 mg, AUC24, Median (range), n = 3): 0.995 µg·h/mL | Cmax ([10]; 80 mg, Mean (SD), n = 3): 0.0753 µg/mL | Cmax ([10]; 80 mg, Median (range), n = 3): 0.0715 µg/mL | Tmax ([10]; 80 mg, Median (range), n = 3): 4 h | half-life ([10]; 80 mg, t½, Mean (SD), multiple dosing QD (Day 15), 80 mg, n = 3, calculated from Rac): 86.1 h | half-life ([10]; 80 mg, t½, Median (range), multiple dosing QD (Day 15), 80 mg, n = 3, calculated from Rac): 91 h | AUC ([10]; 120 mg, AUC24, Mean (SD), n = 3): 2.48 µg·h/mL | AUC ([10]; 120 mg, AUC24, Median (range), n = 3): 1.39 µg·h/mL | Cmax ([10]; 120 mg, Mean (SD), n = 3): 0.137 µg/mL | Cmax ([10]; 120 mg, Median (range), n = 3): 0.0857 µg/mL | Tmax ([10]; 120 mg, Median (range), n = 3): 2.1 h | half-life ([10]; 120 mg, t½, Mean (SD), multiple dosing QD (Day 15), 120 mg, n = 3, calculated from Rac): 45.9 h | half-life ([10]; 120 mg, t½, Median (range), multiple dosing QD (Day 15), 120 mg, n = 3, calculated from Rac): 44.9 h | AUC ([10]; 200 mg, AUC24, Mean (SD), n = 3): 3.02 µg·h/mL | AUC ([10]; 200 mg, AUC24, Median (range), n = 3): 2.54 µg·h/mL | Cmax ([10]; 200 mg, Mean (SD), n = 3): 0.168 µg/mL | Cmax ([10]; 200 mg, Median (range), n = 3): 0.149 µg/mL | Tmax ([10]; 200 mg, Median (range), n = 3): 5.2 h | half-life ([10]; 200 mg, t½, Mean (SD), multiple dosing QD (Day 15), 200 mg, n = 2, calculated from Rac): 142 h | half-life ([10]; 200 mg, t½, Median (range), multiple dosing QD (Day 15), 200 mg, n = 2, calculated from Rac): 142 h | AUC ([10]; 300 mg, AUC24, Mean (SD), n = 3): 4.16 µg·h/mL | AUC ([10]; 300 mg, AUC24, Median (range), n = 3): 2.45 µg·h/mL | Cmax ([10]; 300 mg, Mean (SD), n = 3): 0.204 µg/mL | Cmax ([10]; 300 mg, Median (range), n = 3): 0.137 µg/mL | Tmax ([10]; 300 mg, Median (range), n = 3): 6.1 h | half-life ([10]; 300 mg, t½, Mean (SD), multiple dosing QD (Day 15), 300 mg, n = 3, calculated from Rac): 142 h | half-life ([10]; 300 mg, t½, Median (range), multiple dosing QD (Day 15), 300 mg, n = 3, calculated from Rac): 159 h | AUC ([10]; 450 mg, AUC24, Mean (SD), n = 2): 3.32 µg·h/mL | AUC ([10]; 450 mg, AUC24, Median (range), n = 2): 3.32 µg·h/mL | Cmax ([10]; 450 mg, Mean (SD), n = 3): 0.208 µg/mL | Cmax ([10]; 450 mg, Median (range), n = 3): 0.216 µg/mL | Tmax ([10]; 450 mg, Median (range), n = 3): 5.8 h | half-life ([10]; estimated t1/2, across dose cohorts, multiple dosing): 45 to 159 h | accumulation based on the accumulation index ([10]; multiple dosing QD): up to ten-fold accumulation | Rac (accumulation ratio), Mean (SD) [10, 16]: 4.3 (1.069) | Rac (accumulation ratio), Median (range) [10, 16]: 3.8 (3.5–5.5) | Ctrough, Mean (SD) ([10]; multiple dosing QD (Day 15), 20 mg, n = 11): 43.5 (23.5) ng/mL | Rac (accumulation ratio), Mean (SD) [10, 17]: 9.6 (7.8) | Rac (accumulation ratio), Median (range) [10, 17]: 9.6 (4.2–15.1) | Ctrough, Mean (SD) [10, 18]: 72.9 (40.1) ng/mL | Ctrough, Median (range) [10, 18]: 66.6 (26.7–166) ng/mL | Rac (accumulation ratio), Mean (SD) [10, 19]: 5.7 (1.4) | Rac (accumulation ratio), Median (range) [10, 19]: 6.0 (4.1–6.97) | Ctrough, Mean (SD) [10, 20]: 165 (88.0) ng/mL | Ctrough, Median (range) [10, 20]: 110 (78.6–339) ng/mL | Rac (accumulation ratio), Mean (SD) [10, 21]: 3.3 (1.2) | Rac (accumulation ratio), Median (range) [10, 21]: 3.2 (2.2–4.4) | Ctrough, Mean (SD) [10, 22]: 367 (253) ng/mL | Ctrough, Median (range) [10, 22]: 292 (77.1–1173) ng/mL | Rac (accumulation ratio), Mean (SD) [10, 23]: 9.0 (3.7) | Rac (accumulation ratio), Median (range) [10, 23]: 9.0 (6.4–11.7) | Ctrough, Mean (SD) [10, 24]: 816 (557) ng/mL | Ctrough, Median (range) [10, 24]: 668 (90.5–2925) ng/mL | Rac (accumulation ratio), Mean (SD) [10, 25]: 9.1 (3.3) | Rac (accumulation ratio), Median (range) [10, 25]: 10.1 (5.4–11.7) | Ctrough, Mean (SD) [10, 26]: 1242 (723) ng/mL | Ctrough, Median (range) [10, 26]: 1085 (470–2391) ng/mL | Ctrough, Mean (SD) ([10]; multiple dosing QD (Day 15), 450 mg, n = 1): 1170 ng/mL
